Measurements taken from US20250345392A1, “ANNEXIN A1 LIQUID PHARMACEUTICAL COMPOSITION” (ResoTher Pharma A/S, priority 2022, published 2025).
Ends that are not written are not given here.

Columns and labels:
[1] = 14-day repeat dose IV toxicity study with toxicokinetic evaluation on Day 1 and Day 14 in rats; type: in vivo, Wistar rats; conditions: rat, in vivo, iv, 10 mg/kg/day, IV 10 mg/kg/day
Description: (§1) Peptide 1 in blood samples collected from animals used in the studies (rat and dog) has been measured by an LC-MS/MS method. Analysis of samples collected in the pharmacokinetic study in rats was performed prior to validation of the method. Prior to analysis of samples from the GLP toxicology studies, the method was validated according to GLP to ensure that it is selective, accurate, reproducible, and able to produce reliable results. The method was validated over the range from 0.075 to 25 μg/mL Peptide 1.
In the 14-day intravenous toxicity study in Wistar rats (see study description below), samples were collected from 3 male and 3 female animals per group dosed at 0 (Control), 1, 3 or 10 mg/kg/day at 2, 5, 10, 20 and 40 minutes after dosing on Days 1 and 14. Samples were analysed for levels of Peptide 1.

[2] = PK after single intravenous injection of Peptide 1 in male rats; parameters: species or system male Wistar (CRL: WI(Han)) rats; conditions: rat, in vivo; for clearance / half-life / Vd: iv
Description: as §1
The objective of the study was to assess the pharmacokinetic profile of Peptide 1 when administered once by intravenous injection to male Wistar (CRL: WI(Han)) rats at 0.1, 1.0 and 10.0 mg/kg. The number of rats per group was respectively 6, 6 and 8. Blood samples were collected from 3 animals per group at 2, 5, 10, 20, 40 and 60 minutes after dosing; for the animals receiving 10.0 mg/kg, additional samples were taken from 2 animals at 90 and 120 minutes after dosing. The pharmacokinetics were characterised using mean plasma concentration vs. time data. The pharmacokinetic parameters were estimated using Phoenix WinNonlin Version 6.3 pharmacokinetic software.
[…] 26 plasma samples (samples in Group 1 (0.1 mg/kg) obtained 2 minutes post dosing, in Group 2 (1 mg/kg) 2 to 10 minutes post dosing and in Group 3 (10 mg/kg) 2 to 40 minutes post dosing) had concentrations of Peptide 1 above the upper limit of quantification for the bioanalytical method. As a consequence, plasma concentration of Peptide 1 was extrapolated. Plasma samples obtained 60 minutes post dosing in Group 1 had plasma concentration of Peptide 1 below the limit of quantification.

[3] = single IV 0.1 mg/kg, initial elimination phase
[4] = single IV 1.0 mg/kg, initial elimination phase
[5] = single IV 10 mg/kg, initial elimination phase

## AMVSEFLKQAWFIENEEQEYVQTLKSSKGGPGSAVSPYPTFNPSSDV-NH2 [Peptide 1]
[1]; female, Day 1, read-out: AUC0-∞ (converted)
  AUC(0-inf): 9570 ng·h/mL
[1]; female, Day 1, read-out: T1/2
  half-life: 7.16 min
[1]; female, Day 1, read-out: Vz
  Vd: 0.18 L/kg
[1]; female, Day 14
  C0: 138 µg/mL
  clearance: 16.5 mL/min/kg
[1]; female, Day 14, read-out: AUC0-∞ (converted)
  AUC(0-inf): 10100 ng·h/mL
[1]; female, Day 14, read-out: T1/2
  half-life: 7.04 min
[1]; female, Day 14, read-out: Vz
  Vd: 0.168 L/kg
[1]; male, Day 1
  C0: 104 µg/mL
  clearance: 18.1 mL/min/kg
[1]; male, Day 1, read-out: AUC0-∞ (converted)
  AUC(0-inf): 9200 ng·h/mL
[1]; male, Day 1, read-out: T1/2
  half-life: 7.8 min
[1]; male, Day 1, read-out: Vz
  Vd: 0.204 L/kg
[1]; male, Day 14
  C0: 92.3 µg/mL
  clearance: 18.2 mL/min/kg
[1]; male, Day 14, read-out: AUC0-∞ (converted)
  AUC(0-inf): 9130 ng·h/mL
[1]; male, Day 14, read-out: T1/2
  half-life: 7.31 min
[1]; male, Day 14, read-out: Vz
  Vd: 0.192 L/kg
[2]; 0.1 mg/kg, single IV 0.1 mg/kg, initial elimination phase, read-out: CL
  clearance: 10 mL/min/kg
[2]; 0.1 mg/kg, single IV 0.1 mg/kg, initial elimination phase, read-out: T½
  half-life: 3.49 min
[2]; 0.1 mg/kg, single IV 0.1 mg/kg, initial elimination phase, read-out: Vz
  Vd: 0.0505 L/kg
[2]; 0.1 mg/kg, single IV 0.1 mg/kg, terminal elimination phase, read-out: CL
  clearance: 9.66 mL/min/kg
[2]; 0.1 mg/kg, single IV 0.1 mg/kg, terminal elimination phase, read-out: T½
  half-life: 18.8 min
[2]; 0.1 mg/kg, single IV 0.1 mg/kg, terminal elimination phase, read-out: Vz
  Vd: 0.261 L/kg
[2]; 1 mg/kg, single IV 1.0 mg/kg, initial elimination phase, read-out: CL
  clearance: 8.08 mL/min/kg
[2]; 1 mg/kg, single IV 1.0 mg/kg, initial elimination phase, read-out: T½
  half-life: 3.34 min
[2]; 1 mg/kg, single IV 1.0 mg/kg, initial elimination phase, read-out: Vz
  Vd: 0.0389 L/kg
[2]; 1 mg/kg, single IV 1.0 mg/kg, terminal elimination phase, read-out: CL
  clearance: 8.05 mL/min/kg
[2]; 1 mg/kg, single IV 1.0 mg/kg, terminal elimination phase, read-out: T½
  half-life: 10 min
[2]; 1 mg/kg, single IV 1.0 mg/kg, terminal elimination phase, read-out: Vz
  Vd: 0.116 L/kg
[2]; 10 mg/kg, single IV 10 mg/kg, initial elimination phase, read-out: CL
  clearance: 11.1 mL/min/kg
[2]; 10 mg/kg, single IV 10 mg/kg, initial elimination phase, read-out: T½
  half-life: 7.64 min
[2]; 10 mg/kg, single IV 10 mg/kg, initial elimination phase, read-out: Vz
  Vd: 0.122 L/kg
[2]; 10 mg/kg, single IV 10 mg/kg, terminal elimination phase, read-out: CL
  clearance: 11.1 mL/min/kg
[2]; 10 mg/kg, single IV 10 mg/kg, terminal elimination phase, read-out: T½
  half-life: 10.2 min
[2]; 10 mg/kg, single IV 10 mg/kg, terminal elimination phase, read-out: Vz
  Vd: 0.162 L/kg
[2]; single IV, both phases, range over 0.1-10 mg/kg, read-out: clearance
  clearance: 8 to 11 mL/min/kg
[2]; single IV, initial phase, range over 0.1-10 mg/kg, read-out: half-life
  half-life: 3 to 8 min
[2]; single IV, initial phase, range over 0.1-10 mg/kg, read-out: volume of distribution
  Vd: 0.039 to 0.122 L/kg
[2]; single IV, terminal elimination phase, range over 0.1-10 mg/kg, read-out: half-life
  half-life: 10 to 19 min
[2]; single IV, terminal phase, range over 0.1-10 mg/kg, read-out: volume of distribution
  Vd: 0.116 to 0.261 L/kg
[2]; [3]
  AUC(0-t): 165 ng·h/mL
  C0: 1.79 µg/mL
[2]; single IV 0.1 mg/kg, terminal elimination phase
  AUC(0-inf): 173 ng·h/mL
[2]; [4]
  AUC(0-t): 2070 ng·h/mL
  C0: 32.5 µg/mL
[2]; single IV 1.0 mg/kg, terminal elimination phase
  AUC(0-inf): 2070 ng·h/mL
[2]; [5]
  AUC(0-t): 14800 ng·h/mL
  C0: 68.9 µg/mL
[2]; single IV 10 mg/kg, terminal elimination phase
  AUC(0-inf): 15000 ng·h/mL
